This passage reports TGI and GI50 results from PubChem BioAssay (NCI).

Holding throughout (test): NCI tumour cell line growth inhibition, 48 h
For test [1], the system named is KM12 colon.
Test [2] relates to IGROV1 ovarian.
In test [3] the test system is SNB-75 CNS.
Test [4] has as its system HCC-2998 colon.
The test system of test [5] is A549 NSCLC.
Test [6] concerns MCF7 breast.
Test [7] concerns NCI-H226 lung.
The subject of test [8] is NCI-H460 lung.
The subject of test [9] is MDA-N.
Test [10] relates to SK-MEL-2 melanoma.

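Five concentrations, 48 hours, 96-well plates. At the GI50, growth is halved. TGI is the concentration that stops growth completely.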

In the case of `CC(=O)OC[C@H]1O[C@@H](O[C@H]2[C@H](OC(C)=O)C=CO[C@@H]2COC(C)=O)C(OC(C)=O)[C@H]2OC(C)(C)O[C@H]21` (stereo not given in full), the TGI in [1] was over 100 µM; in [2] it was over 100 µM; in [3] it was 87.3 µM; in test [4], over 100 µM; in test [5], over 100 µM; in test [6], over 100 µM. The TGI in test [7] and in test [8] was over 100 µM each time.

Turning to `CCOC(=O)/C(=C\NCC(O)c1ccccc1)c1nc2ccccc2[nH]1` (stereo not given), the TGI in test [1] is 67.9 µM; in test [2], 57.4 µM; in test [9], 82.7 µM; in test [3], 58.2 µM; in test [4], 42.2 µM; in test [5], over 100 µM. For the same compound, the figures for the TGI in test [6] and in test [8] were 69 µM and 50.5 µM, respectively.

With `C=CC[C@H]1[C@@H](O[Si](C)(C)C(C)(C)C)[C@H](n2ccc(=O)[nH]c2=O)O[C@@H]1CO[Si](C)(C)C(C)(C)C`, the TGI in test [1] was found to be 3.49 µM; in test [2], 6.05 µM; in [3], 3.97 µM; in [4], 3.74 µM; in test [5] it was 5.8 µM; in [6] it was 3.8 µM. Besides, the results for the TGI in test [7], in test [8] and in test [10] were 18.6 µM, 4.06 µM and 7.08 µM, respectively.

Turning to `CCNC(=O)Nc1cccc(C)n1`, the TGI in test [1], in test [2], in test [9], in [3], in test [4] and in [5] was over 100 µM each time. Further, the TGI in test [6], in test [7] and in test [8] was over 100 µM each time.

On to `Cn1ccnc1S/C(=C\C=C(C#N)C#N)c1ccc(Cl)cc1`, for which the TGI in [1] came to 6.22 µM; in test [2], 16.1 µM; in test [3], 12.5 µM; in test [4], 9.54 µM; in test [5], 22.6 µM; in [6], 2.62 µM. Moreover, the TGI was over 22.8 µM in [7], 27.2 µM in test [8] and over 45.5 µM in test [10]. In addition, the GI50 in test [7] is 3.97 µM; in test [10], 5.38 µM.

In the case of `Cc1ccc([N+](=O)[O-])cc1S(=O)(=O)Nc1ccc(C2=NN(c3ccc([N+](=O)[O-])cc3[N+](=O)[O-])C(c3ccccc3)C2)cc1` (stereo not given), the TGI was 44.8 µM in [1]; 36 µM in test [2]; 35.5 µM in test [9]; 52.4 µM in test [3]; 96.6 µM in test [5]; 26.3 µM in test [6]. Also, the results for the TGI in test [7] and in test [10] were 35.6 µM and 33.7 µM, respectively.

For `CCC1C(=O)C[C@H]2[C@@H]3C(O)CC4=CC(=O)CC[C@]4(C)[C@H]3CC[C@]12C` (stereo not given in full), the TGI in test [1], in test [2], in test [3], in test [4], in [5] and in test [6] was over 50 µM in each case. The TGI in test [8] and in [10] was over 50 µM in each case.

For `COC(=O)/C=C/c1ccccc1N=[S@](C)(=O)c1ccc(C)cc1`, the TGI in [1] is over 100 µM; in test [2], over 100 µM; in test [3] it was 36.1 µM; in test [4] it was 50.1 µM; in [5], over 100 µM; in test [6] it was over 100 µM. Moreover, the values for the TGI in test [7], in test [8] and in test [10] were over 100 µM, 49.9 µM and 70.7 µM, respectively.

For the compound `COc1cc(OC)c2c(O)cc(CC(C)O)cc2c1` (stereo not given), the TGI in [1], in test [2], in test [3], in test [4], in test [5] and in test [8] was over 100 µM throughout. In test [10], this compound showed a TGI of over 100 µM.

For the compound `COC1=CC(=O)c2ccccc2C1(CCC=C(C)C)C1=NC(C)(C)CO1` (stereo not given), the TGI in [1], in [2], in test [3], in [5], in test [7] and in test [8] was over 100 µM throughout. This compound also had a TGI in [10] of over 100 µM.

For `O=C(CSc1nc2ccccc2[nH]1)Nc1ccc(-c2nc3ccccc3s2)c(Cl)c1`, the GI50 is 2.67 µM in test [1]; 1.6 µM in [2]; 6.58 µM in [3]; 2.77 µM in [4]; 3.25 µM in test [5]; 3.58 µM in test [6]. Further, the GI50 is 3.47 µM in [8] and 7.44 µM in [10]. The TGI is 8.1 µM in test [1]; 4.99 µM in test [2]; over 100 µM in test [3]; 9.4 µM in test [4]; over 100 µM in [5]; over 100 µM in [6]. In addition, the TGI in test [8] and in test [10] was over 100 µM in each case.

In the case of `NCCC(N)C(=O)O` (stereo not given), the TGI in test [1], in test [2], in test [9], in test [5], in test [6] and in [7] was over 100 µM in each case. The TGI in test [8] and in [10] was over 100 µM throughout.

As to `COC(=O)C12Oc3ccc(-c4ccc5c(c4O)C(=O)C4=CCC(C)C(O)C4(C(=O)OC)O5)c(O)c3C(=O)C1=CCC(C)C2O` (stereo not given), the TGI in test [1] worked out at 3.26 µM; in test [2], 3.81 µM; in test [3], 20.5 µM; in [4], 2.6 µM; in [5] it was 6.59 µM; in test [7] it was 3.77 µM. In addition, the TGI in test [8] came out at 6.33 µM; in test [10], 2.82 µM.

Turning to `CC(C)CCCC(C)[C@H]1CCC2[C@@H]3CCC4Cc5nc6c(nc5C[C@]4(C)C3CC[C@@]21C)CC1CC[C@@H]2C(C[C@@H](O)[C@@]3(C)C2C[C@@H]2OC4(CCC(C)CO4)C(C)[C@@H]23)[C@@]1(C)C6` (stereo not given in full), the TGI in [1], in [2], in test [9], in test [3], in [4] and in test [5] was over 100 µM each time. Besides, the TGI in test [6], in test [7] and in test [8] was over 100 µM throughout.
